What was measured:
MOG-induced EAE [1] = assay: MOG-induced EAE with GA blocking and s.c. daily GA (Example 2.5); format: in vivo, C57B1 mice; design: key to MMS value / GMS value: EAE clinical grade (Table 2); ≥1 = sick, 6 = dead/sacrificed
Protocol: The objective of this study was to test the suppressive effect of laquinimod alone and in combination with Glatiramer acetate in the EAE model in C57B1 mice. […] Laquinimod was administered orally at dose levels of 2.5 and 5.0 mg/kg.
EAE was induced in the mice by the injection of the encephalitogenic emulsion (MOG/CFA). Laquinimod was administered orally for 30 consecutive days.
EAE induction EAE was induced by injecting the encephalitogenic mixture (emulsion) consisting of MOG ([…]). A 0.2 ml emulsion was injected subcutaneously into the flanks of the mice. Pertussis toxin was injected intraperitoneally on the day of induction and 48 hours later (total amount will be 0.150+0.150=0.300 μg/mouse in 0.2 ml dosage volume).
Groups 1, 3-8: 45.9 mg MOG was diluted in […] Normal Saline (3.0 mg/ml MOG stock solution). 12.5 mL of 3.0 mg/ml stock solution was diluted in 12.5 mL Normal Saline to yield 1.5 mg MOG/mL. […] The emulsification was made from equal parts of oil and liquid portions (1:1) in two syringes connected to each other with Leur lock, transferred to insulin syringe and 0.2 ml was injected the right flank of each mouse. The dose of the MOG in all the groups (1 to 8) was […].
The test concentrations of laquinimod were prepared in purified water. For high dose (25.0 mg/kg) 2.5 mg/mL stock solution was prepared (group 8). The 2.5 mg/mL stock solution was diluted 1:5 and 1:10 to yield 0.5 and 0.25 mg/mL for dose levels of 5.0 mg/kg for groups 5 and 7 and 2.5 mg/kg respectively for groups #4 and 6. Laquinimod was administered daily from the initiation of the study, to the respective groups by gavage at a volume of 0.2 ml/mouse.
Every day one tube was thawed and brought to RT.
Clinical signs Scoring of EAE clinical signs was started from Day 10 post EAE induction and was continued daily until Day 30. The clinical signs were recorded according to a grading system described in the Table 2 above.
All mice having scores of 1 and above were considered sick. When the first clinical sign appeared all mice were given food soaked in water, which was spread on different places on the bedding of the cages. An animal which continued to have score 5 for three days was killed on humane grounds and given score 6 on the next day. For calculation purposes, the score of animals that were sacrificed or died (6) was carried forward.

MOG-induced EAE [2] = assay: Summary of studies of GA-blocking + laquinimod in MOG-induced EAE (Examples 2.1-2.3); format: in vivo, mice; conditions: Mus musculus, alone or + GA Blocking, read-out: Mean percent inhibition, Examples 2.1-2.3 summarized
Protocol: FIG. 4 is a graphical representation summarizing experimental results from Examples 2.1-2.3.
At higher doses (5 and 25 mg/kg) laquinimod provides an additive effect over GA-blocking as summarized in Table 9 and shown on FIGS. 4A and 4B.

MSCH-induced EAE = MSCH-induced EAE in CSJL/F1 mice (Example 2.8); format: in vivo; design: key to MMS value (Mean Maximal Score) / GMS value (Group Mean Score): EAE clinical score per grading table; 5 = sacrificed or died
Protocol: Disease was induced in all mice by the injection of the encephalitogenic emulsion (MSCH/CFA). The test articles and the vehicle were administered orally twice a day.
For groups 1 and 3 to 6, 360.0 mg MSCH was suspended in 3.0 ml PBS to yield 120 mg/ml MSCH suspension.
0.05 ml was injected into the left foot-pad of each mouse. The concentration of MSCH in emulsion in all groups was 60 mg/mL. The dose of the MSCH in all the groups was 3.0 mg/0.05 ml/mouse. The concentration of MT in emulsion in all groups was 0.25 mg/mL. The dose of the MT in all the groups was 0.0125 mg/0.05 ml/mouse.
36 μL Pertussis toxin (200 μg/ml) was added to 44.964 ml PBS to yield 160 ng/ml. The pertussis toxin was administered intravenous on the day of encephalitogen injection and 48 hours later (80.0 ng/0.5 ml/mouse).
Solutions at concentration of 0.001, 0.01, 0.03 and 0.1 mg/mL laquinimod were prepared in water for dose levels of 0.01, 0.1, 0.3 and 1.0 mg/kg respectively. The test formulations were stored at 2 to 8° C. until use in amber colored bottles.
The mice were administered with the respective dose levels of laquinimod at volume dose level of 200 μL/mouse. The test formulations were vortexed before dispensing in syringe.
The different dose levels laquinimod were administered to the respective groups once a day.
Scoring of EAE clinical signs was initiated from the 10th day post-EAE induction and was continued daily until Day 23. The clinical signs were recorded on observation cards according to a grading system described in the table 23 above. Animals with score 4 for more than three days were given score 5 and sacrificed for humane reasons. For calculation purposes, the score (5) of animals that are sacrificed or died were carried forward.
The calculations are as shown in Example 2.4.

[3] = LAQ 2.5 mg/kg oral daily 30 d, alone or + GA 250 mg/kg s.c. daily 10 d
[4] = LAQ 2.5 mg/kg oral daily 30 d, alone or + GA 250 mg/kg s.c. daily 10 d, listed as LAQ
[5] = LAQ 5.0 mg/kg oral daily 30 d, alone or + GA 250 mg/kg s.c. daily 10 d
[6] = LAQ 0.01 mg/kg daily, orally by gavage
[7] = LAQ 0.1 mg/kg daily, orally by gavage
[8] = LAQ 0.3 mg/kg daily, orally by gavage
[9] = LAQ 1.0 mg/kg daily, orally by gavage
[10] = laquinimod 0.1 mg/kg/day oral, alone or + GA 0.5 mg/kg

CCN(C(=O)c1c(O)c2c(Cl)cccc2n(C)c1=O)c1ccccc1 [laquinimod]
% Inhibition 1 (incidence) (MOG-induced EAE [1]; [3]): 57.1% | GMS value (MOG-induced EAE [1]; [3]): 0.5 ± 0.8 | Incidence (MOG-induced EAE [1]; [3]): 6/15 | MMS % Inhibition 2 (MOG-induced EAE [1]; [3]): 55.9% | MMS value (MOG-induced EAE [1]; [3]): 1.5 ± 2.1 | Mean Duration (MOG-induced EAE [1]; [3]): 0.8 ± 2.6 days | Mean Onset (MOG-induced EAE [1]; [3]): 30.3 ± 2.6 days | Mortality (MOG-induced EAE [1]; [3]): One | GMS % Inhibition 3 (MOG-induced EAE [1]; [4]): 76.2% | Mortality (MOG-induced EAE [1]; [4]): 1/15 | GMS % Inhibition 3 (MOG-induced EAE [1]; LAQ 2.5 mg/kg oral daily 30 d, alone or + GA 250 mg/kg s.c. daily 10 d, listed as LQ): 76.2% | % Inhibition 1 (incidence) (MOG-induced EAE [1]; [5]): 64.3% | GMS value (MOG-induced EAE [1]; [5]): 0.6 ± 0.7 | Incidence (MOG-induced EAE [1]; [5]): 9/15 | MMS % Inhibition 2 (MOG-induced EAE [1]; [5]): 38.2% | MMS value (MOG-induced EAE [1]; [5]): 2.1 ± 1.8 | Mean Duration (MOG-induced EAE [1]; [5]): 5.7 ± 6.6 days | Mean Onset (MOG-induced EAE [1]; [5]): 25.1 ± 6.8 days | Mortality (MOG-induced EAE [1]; [5]): 0/15 | % Inhibition 1 (incidence) (MOG-induced EAE [1]; LAQ 25.0 mg/kg oral daily 30 d): 100.0% | GMS % Inhibition 3 (MOG-induced EAE [1]; LAQ 25.0 mg/kg oral daily 30 d): 100.0% | GMS value (MOG-induced EAE [1]; LAQ 25.0 mg/kg oral daily 30 d): 0.0 ± 0.0 | Incidence (MOG-induced EAE [1]; LAQ 25.0 mg/kg oral daily 30 d): 0/15 | MMS % Inhibition 2 (MOG-induced EAE [1]; LAQ 25.0 mg/kg oral daily 30 d): 100.00% | MMS value (MOG-induced EAE [1]; LAQ 25.0 mg/kg oral daily 30 d): 0.0 ± 0.0 | Mean Duration (MOG-induced EAE [1]; LAQ 25.0 mg/kg oral daily 30 d): 31.0 ± 0.0 days | Mean Onset (MOG-induced EAE [1]; LAQ 25.0 mg/kg oral daily 30 d): 0.0 ± 0.0 days | Mortality (MOG-induced EAE [1]; LAQ 25.0 mg/kg oral daily 30 d): 0/15 | GMS % Inhibition 3 (MOG-induced EAE [1]; LAQ 25.0 mg/kg oral daily 30 d, listed as LAQ): 100.00% | GMS % Inhibition 3 (MOG-induced EAE [1]; LAQ 25.0 mg/kg oral daily 30 d, listed as LQ): 100% | inhibition at 2.5 mg/kg (MOG-induced EAE [2]; laquinimod 2.5 mg/kg): 53.6% | inhibition at 5 mg/kg (MOG-induced EAE [2]; laquinimod 5 mg/kg): 57.3% | inhibition at 25 mg/kg (MOG-induced EAE [2]; laquinimod 25 mg/kg): 74.9% | % Inhibition 1 (according to Incidence) (MSCH-induced EAE; [6]): 0.0% | % Inhibition 2 (according to MMS) (MSCH-induced EAE; [6]): 24.4% | % Inhibition 3 (according to GMS) (MSCH-induced EAE; [6]): 35.3%( ) | GMS value (Group Mean Score) (MSCH-induced EAE; [6]): 2.2 ± 1.2 | Incidence (MSCH-induced EAE; [6]): 10/11 | MMS value (Mean Maximal Score) (MSCH-induced EAE; [6]): 3.4 ± 1.4 | Mean Duration (MSCH-induced EAE; [6]): 9.5 days | Mortality (MSCH-induced EAE; [6]): 2/11 | Onset (MSCH-induced EAE; [6]): 13.7 days | % Inhibition 1 (according to Incidence) (MSCH-induced EAE; [7]): 90.0% | % Inhibition 2 (according to MMS) (MSCH-induced EAE; [7]): 42.2% | % Inhibition 3 (according to GMS) (MSCH-induced EAE; [7]): 55.9%( ) | GMS value (Group Mean Score) (MSCH-induced EAE; [7]): 1.5 ± 1.2 | Incidence (MSCH-induced EAE; [7]): 1/11 | MMS value (Mean Maximal Score) (MSCH-induced EAE; [7]): 2.6 ± 1.8 | Mean Duration (MSCH-induced EAE; [7]): 6.9 days | Mortality (MSCH-induced EAE; [7]): 8/11 | Onset (MSCH-induced EAE; [7]): 16.5 days | % Inhibition 1 (according to Incidence) (MSCH-induced EAE; [8]): 30.0% | % Inhibition 2 (according to MMS) (MSCH-induced EAE; [8]): 53.3% | % Inhibition 3 (according to GMS) (MSCH-induced EAE; [8]): 73.5%( ) | GMS value (Group Mean Score) (MSCH-induced EAE; [8]): 0.9 ± 0.9 | Incidence (MSCH-induced EAE; [8]): 7/11 | MMS value (Mean Maximal Score) (MSCH-induced EAE; [8]): 2.1 ± 1.8 | Mean Duration (MSCH-induced EAE; [8]): 4.2 days | Mortality (MSCH-induced EAE; [8]): 1/11 | Onset (MSCH-induced EAE; [8]): 17.3 days | % Inhibition 1 (according to Incidence) (MSCH-induced EAE; [9]): 90.0% | % Inhibition 2 (according to MMS) (MSCH-induced EAE; [9]): 93.3% | % Inhibition 3 (according to GMS) (MSCH-induced EAE; [9]): 97.1%( ) | GMS value (Group Mean Score) (MSCH-induced EAE; [9]): 0.1 ± 0.3 | Incidence (MSCH-induced EAE; [9]): 1/11 | MMS value (Mean Maximal Score) (MSCH-induced EAE; [9]): 0.3 ± 0.9 | Mean Duration (MSCH-induced EAE; [9]): 0.5 days | Mortality (MSCH-induced EAE; [9]): 0/11 | Onset (MSCH-induced EAE; [9]): 23.5 days | Incidence (MSCH-induced EAE; laquinimod 0.01 mg/kg/day oral): 91% | activity according to GMS (MSCH-induced EAE; laquinimod 0.01 mg/kg/day oral): 35.3% | activity according to incidence (MSCH-induced EAE; laquinimod 0.01 mg/kg/day oral): 9.1% | duration of disease (MSCH-induced EAE; laquinimod 0.01 mg/kg/day oral): 13.7 ± 3.8 days | onset of disease (MSCH-induced EAE; laquinimod 0.01 mg/kg/day oral): 9.5 ± 3.9 days | activity according to GMS (MSCH-induced EAE; [10]): 55.9% | activity according to incidence (MSCH-induced EAE; [10]): 27.3% | activity according to GMS (MSCH-induced EAE; laquinimod 0.3 mg/kg/day oral): 73.5% | activity according to incidence (MSCH-induced EAE; laquinimod 0.3 mg/kg/day oral): 36.4% | activity (conclusion) (MSCH-induced EAE; laquinimod 1.0 mg/kg as printed, alone or + GA 0.5 mg/kg): 55.9% | activity according to GMS (MSCH-induced EAE; laquinimod 1.0 mg/kg/day oral): 97.1% | activity according to incidence (MSCH-induced EAE; laquinimod 1.0 mg/kg/day oral): 90.9%

— patent US20160038532A1, “Treatment of Multiple Sclerosis With Combination of Laquinimod and Glatiramer Acetate” (TEVA PHARMACEUTICAL INDUSTRIES, LTD., priority 2011, published 2016)
